Assays:
c-Src = c-Src (Homo sapiens (Human), UniProt P12931); assay: c-Src enzyme inhibition (Z-LYTE FRET); type: biochemical
Experimental: (§1) The enzyme inhibitory activities of compounds disclosed herein are determined by FRET using synthetic peptides labelled with both donor and acceptor fluorophores (Z-LYTE, Invitrogen Ltd., Paisley, UK).
(§2) The relevant enzyme (3000 ng/mL or 2000 ng/mL respectively, 2.5 μL) is incubated with the test compound (either 4 μg/mL, 0.4 μg/mL, 0.04 μg/mL, or 0.004 μg/mL, 2.5 μL each) for 2 hr at RT. The FRET peptides (8 μM, 2.5 μL), and appropriate ATP solutions (2.5 μL, 800 μM for c-Src, and 60 μM ATP for Syk) are then added to the enzymes/compound mixtures and incubated for 1 hr. Development reagent (protease, 5 μL) is added for 1 hr prior to detection in a fluorescence microplate reader (Varioskan® Flash, ThermoFisher Scientific).
(§3) In all cases, the site-specific protease cleaves non-phosphorylated peptide only and eliminates the FRET signal. Phosphorylation levels of each reaction are calculated using the ratio of coumarin emission (donor) over fluorescein emission (acceptor), for which high ratios indicate high phosphorylation and low ratios indicate low phosphorylation levels.

Syk = Syk (Homo sapiens (Human), UniProt P43405); assay: Syk enzyme inhibition (Z-LYTE FRET); type: biochemical
Experimental: as §1, §2, §3

PBMCs [1] = assay: LPS-induced TNFα/IL-8 release in PBMC cells; type: cell-based; conditions: Homo sapiens, read-out: IC50 Values for Inhibition of Cytokine Release PBMCs IL-8
Experimental: Peripheral blood mononuclear cells (PBMCs) from healthy subjects are separated from whole blood using a density gradient (Lymphoprep, Axis-Shield Healthcare). The PBMCs are seeded in 96 well plates and treated with compounds at the desired concentration for 2 hours before addition of 1 ng/mL LPS (Escherichia Coli O111:B4 from Sigma Aldrich) for 24 hours under normal tissue culture conditions (37° C., 5% CO2). The supernatant is harvested for determination of IL-8 and TN Fa concentrations by sandwich ELISA (Duo-set, R&D systems) and read on the fluorescence microplate reader (Varioskan® Flash, ThermoFisher Scientific).

GSK3α = GSK3α (Homo sapiens (Human), UniProt P49840); assay: GSK 3α enzyme inhibition (Z-LYTE FRET, Method 2); type: biochemical
Chain of GSK3α (P49840 whole entry): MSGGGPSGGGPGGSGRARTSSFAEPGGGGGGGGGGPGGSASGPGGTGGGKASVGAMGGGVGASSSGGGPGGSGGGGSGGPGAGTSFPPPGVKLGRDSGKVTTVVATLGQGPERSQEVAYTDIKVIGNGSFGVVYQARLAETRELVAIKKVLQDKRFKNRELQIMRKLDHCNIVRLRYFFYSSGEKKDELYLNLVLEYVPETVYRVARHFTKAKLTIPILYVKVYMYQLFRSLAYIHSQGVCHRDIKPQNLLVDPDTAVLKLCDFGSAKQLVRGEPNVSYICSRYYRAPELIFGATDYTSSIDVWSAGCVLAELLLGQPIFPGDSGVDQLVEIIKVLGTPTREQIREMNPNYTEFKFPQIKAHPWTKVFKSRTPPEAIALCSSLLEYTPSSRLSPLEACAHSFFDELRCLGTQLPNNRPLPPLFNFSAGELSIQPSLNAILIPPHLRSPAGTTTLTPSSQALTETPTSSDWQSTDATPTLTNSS
Experimental: as §1
The inhibitory activities of compounds of the invention against the GSK 3α enzyme isoform (Invitrogen), are evaluated by determining the level of activation/phosphorylation of the target peptide. The GSK3-α protein (500 ng/mL, 2.5 μL) is mixed with the test compound (2.5 μL at either 4 μg/mL, 0.4 μg/mL, 0.04 μg/mL, or 0.004 μg/mL) for 2 hr at RT. The FRET peptide (8 μM, 2.5 μL), which is a phosphorylation target for GSK3α, and ATP (40 μM, 2.5 μL) are then added to the enzyme/compound mixture and the resulting mixture incubated for 1 hr. Development reagent (protease, 5 μL) is added for 1 hr prior to detection in a fluorescence microplate reader (Varioskan® Flash, ThermoFisher Scientific).
as §3

p38 MAPKα = p38 MAPKα (Homo sapiens (Human), UniProt Q16539); assay: p38 MAPKα enzyme inhibition (Z-LYTE FRET, Method 2); type: biochemical
Chain of p38 MAPKα (Q16539 whole entry): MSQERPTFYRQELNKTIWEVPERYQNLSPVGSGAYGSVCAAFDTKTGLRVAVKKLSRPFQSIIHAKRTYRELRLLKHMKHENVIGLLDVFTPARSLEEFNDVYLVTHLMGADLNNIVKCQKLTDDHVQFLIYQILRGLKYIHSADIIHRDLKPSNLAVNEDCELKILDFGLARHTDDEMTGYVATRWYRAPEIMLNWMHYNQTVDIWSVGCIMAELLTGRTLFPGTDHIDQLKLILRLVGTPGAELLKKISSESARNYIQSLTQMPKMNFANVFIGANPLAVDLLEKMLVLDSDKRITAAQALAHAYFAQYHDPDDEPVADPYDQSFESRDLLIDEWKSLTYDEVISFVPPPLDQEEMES
Experimental: as §1
The inhibitory activities of test compounds against the p38 MAPKα isoform (MAPK14: Invitrogen), are evaluated indirectly by determining the level of activation/phosphorylation of the down-stream molecule, MAPKAP-K2. The p38 MAPKα protein (80 ng/mL, 2.5 μL) is mixed with the test compound (2.5 μL of either 4 μg/mL, 0.4 μg/mL, 0.04 μg/mL or 0.004 μg/mL) for 2 hr at RT. […] The mixture is incubated for 1 hr at RT. Development reagent (protease, 5 μL) is added for 1 hr prior to detection in a fluorescence microplate reader (Varioskan® Flash, ThermoFisher Scientific).
as §3

PBMCs [2] = assay: IL-2 and IFN gamma release in CD3/CD28 stimulated PBMC cells; type: cell-based; conditions: Homo sapiens
Experimental: PBMCs from healthy subjects are separated from whole blood using a density gradient (Lymphoprep, Axis-Shield Healthcare). Cells are added to a 96 well plate pre-coated with a mixture of CD3/CD38 monoclonal antibodies (0.3 μg/mL eBioscience and 3 μg/mL BD Pharmingen respectively). Compound at the desired concentration is then added to the wells and the plate left for 3 days under normal tissue culture conditions. Supernatants are harvested and IL-2 and IFN gamma release determined by Sandwich ELISA (Duo-set, R&D System). The IC50 is determined from the dose response curve.

[3] = read-out: IC50 Values for Inhibition of Cytokine Release PBMCs IL-2
[4] = read-out: IC50 Values for Inhibition of Cytokine Release PBMCs IFNγ

Chain of c-Src (P12931 whole entry, looked up): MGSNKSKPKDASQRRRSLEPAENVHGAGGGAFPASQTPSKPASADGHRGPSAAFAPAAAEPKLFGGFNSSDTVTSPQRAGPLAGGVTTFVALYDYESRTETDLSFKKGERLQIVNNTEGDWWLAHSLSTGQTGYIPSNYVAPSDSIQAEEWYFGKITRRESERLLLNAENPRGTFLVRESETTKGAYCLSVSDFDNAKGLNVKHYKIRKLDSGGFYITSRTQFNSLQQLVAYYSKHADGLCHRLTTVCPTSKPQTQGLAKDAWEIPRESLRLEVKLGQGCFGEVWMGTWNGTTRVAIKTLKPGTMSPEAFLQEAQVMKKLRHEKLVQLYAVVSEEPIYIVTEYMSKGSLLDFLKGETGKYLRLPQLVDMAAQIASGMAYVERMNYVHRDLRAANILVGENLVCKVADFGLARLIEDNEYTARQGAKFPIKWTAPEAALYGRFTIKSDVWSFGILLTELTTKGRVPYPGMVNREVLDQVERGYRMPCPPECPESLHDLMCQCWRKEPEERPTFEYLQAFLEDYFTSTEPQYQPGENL

C#Cc1cccc(Nc2nccc(Oc3ccc(NC(=O)Nc4cc(C(C)C)nn4-c4ccc(C)cc4)c4ccccc34)n2)c1 [Example 10, 1-(4-((2-((3-Ethynylphenyl)amino)pyrimidin-4-yl)oxy)naphthalen-1-yl)-3-(3-isopropyl-1-(p-tolyl)-1H-pyrazol-5-yl)urea]
IC50 (c-Src): 137 nM
IC50 (Syk): 807 nM
IC50 (PBMCs [1]): 7.9 nM

C#Cc1cc(Nc2nccc(Oc3ccc(NC(=O)Nc4cc(C(C)C)nn4-c4ccc(C)cc4)c4ccccc34)n2)cc(OC)c1 [Example 15, 1-(4-((2-((3-Ethynyl-5-methoxyphenyl)amino)pyrimidin-4-yl)oxy)naphthalen-1-yl)-3-(3-isopropyl-1-(p-tolyl)-1H-pyrazol-5-yl)urea]
IC50 (c-Src): > 1600 nM
IC50 (Syk): > 1600 nM
IC50 (PBMCs [1]): 6.1 nM

Cc1ccc(-n2nc(C(C)C)cc2NC(=O)Nc2ccc(Oc3ccnc(Nc4cccc(OCCOCCOCCO)c4)n3)c3ccccc23)cc1 [Example 19, 1-(4-((2-((3-(2-(2-(2-Hydroxyethoxy)ethoxy)ethoxy)phenyl)amino)pyrimidin-4-yl)oxy)-naphthalen-1-yl)-3-(3-isopropyl-1-(p-tolyl)-1H-pyrazol-5-yl)urea]
IC50 (c-Src): 5 nM
IC50 (Syk): 20 nM
IC50 (PBMCs [1]): 1.2 nM
IC50 (GSK3α): 1070 nM

COCCOCCOCCOc1cc(Nc2nccc(Oc3ccc(NC(=O)Nc4cc(C(C)C)nn4-c4ccc(C)cc4)c(Cl)c3Cl)n2)cc(OC)c1 [Example 35, 1-(2,3-Dichloro-4-((2-((3-methoxy-5-(2-(2-(2-methoxyethoxy)ethoxy)ethoxy)phenyl)-amino)pyrimidin-4-yl)oxy)phenyl)-3-(3-isopropyl-1-(p-tolyl)-1H-pyrazol-5-yl)urea]
IC50 (p38 MAPKα): 487 nM
IC50 (c-Src): 15 nM
IC50 (PBMCs [1]): 2.1 nM
IC50 (GSK3α): > 10000 nM
IC50 (PBMCs [2]; [3]): 9.8 nM

COCCOCCOCCOc1cc(Nc2nccc(Oc3ccc(NC(=O)Nc4cc(C(F)(F)C(F)(F)F)nn4-c4ccc(C)cc4)c4ccccc34)n2)cc(OC)c1 [Example 39, 1-(4-((2-((3-Methoxy-5-(2-(2-(2-methoxyethoxyl)ethoxy)ethoxy)phenyl)amino)pyrimidin-4-yl)oxy)naphthalen-1-yl)-3-(3-(perfluoroethyl)-1-(p-tolyl)-1H-pyrazol-5-yl)urea]
IC50 (p38 MAPKα): 433 nM
IC50 (PBMCs [1]): 5.5 nM
IC50 (GSK3α): 9540 nM

COCCOCCOCCOc1cc(Nc2nccc(Oc3ccc(NC(=O)Nc4cc(C(C)(C)C(F)(F)F)nn4-c4ccc(C)cc4)c4ccccc34)n2)cc(OC)c1 [Example 40, 1-(4-((2-((3-Methoxy-5-(2-(2-(2-methoxyethoxyl)ethoxy)ethoxy)phenyl)amino)pyrimidin-4-yl)oxy)naphthalen-1-yl)-3-(1-(p-tolyl)-3-(1,1,1-trifluoro-2-methylpropan-2-yl)-1H-pyrazol-5-yl)urea]
IC50 (PBMCs [1]): 7.2 nM
IC50 (GSK3α): 8170 nM
IC50 (PBMCs [2]; [4]): 1 nM
IC50 (PBMCs [2]; [3]): 175 nM

COc1cc(Nc2nccc(Oc3ccc(NC(=O)Nc4cc(C(C)(C)C)nn4-c4ccc(C)cc4)c4ccccc34)n2)cc(SCCN2CCOCC2)c1 [Example 41, 1-(3-(tert-Butyl)-1-(p-tolyl)-1H-pyrazol-5-yl)-3-(4-((2-((3-methoxy-5-((2-morpholinoethyl)-thio)phenyl)amino)pyrimidin-4-yl)oxy)naphthalen-1-yl)urea]
IC50 (p38 MAPKα): 224 nM
IC50 (PBMCs [1]): 4.8 nM
IC50 (GSK3α): 2820 nM
IC50 (PBMCs [2]; [4]): 2.5 nM
IC50 (PBMCs [2]; [3]): 80.3 nM

COc1cc(Nc2nccc(Oc3ccc(NC(=O)Nc4cc(C(C)(C)C)nn4-c4ccc(C)cc4)c4ccccc34)n2)cc(S(=O)(=O)CCCN2CCOCC2)c1 [Example 43, 1-(3-(tert-Butyl)-1-(p-tolyl)-1H-pyrazol-5-yl)-3-(4-((2-((3-methoxy-5-((3-morpholinopropyl)-sulfonyl)phenyl)amino)pyrimidin-4-yl)oxy)naphthalen-1-yl)urea]
IC50 (PBMCs [1]): 2.9 nM
IC50 (GSK3α): 531 nM
IC50 (PBMCs [2]; [4]): 2.2 nM
IC50 (PBMCs [2]; [3]): 78.7 nM

COc1cc(Nc2nccc(Oc3ccc(NC(=O)Nc4cc(C(C)(C)C)nn4-c4ccc(C)cc4)c4ccccc34)n2)cc(SCCCO)c1 [Example 48, 1-(3-(tert-Butyl)-1-(p-tolyl)-1H-pyrazol-5-yl)-3-(4-((2-((3-((3-Hydroxypropyl)thio)-5-methoxyphenyl)amino)pyrimidin-4-yl)oxy)naphthalen-1-yl)urea]
IC50 (p38 MAPKα): 195 nM
IC50 (Syk): 37 nM
IC50 (PBMCs [1]): 3 nM
IC50 (GSK3α): 2050 nM
IC50 (PBMCs [2]; [3]): 49.2 nM

COCCOCCOCCOc1cc(C#N)cc(Nc2nccc(Oc3ccc(NC(=O)Nc4cc(C(C)(C)C)nn4-c4ccc(C)cc4)c4ccccc34)n2)c1 [Example 52, 1-(3-(tert-Butyl)-1-(P-tolyl)-1H-pyrazol-5-yl)-3-(4-((2-((3-cyano-5-(2-(2-(2-methoxyethoxy)-ethoxy)ethoxy)phenyl)amino)pyrimidin-4-yl)oxy)naphthalen-1-yl)urea]
IC50 (PBMCs [1]): 15 nM
IC50 (GSK3α): > 13000 nM

C#Cc1cc(Nc2nccc(Oc3ccc(NC(=O)Nc4cc(C(C)(C)C)nn4-c4ccc(C)cc4)c4ccccc34)n2)cc(OCCOCCOCCOC)c1 [Example 54, 1-(3-(tert-Butyl)-1-(p-tolyl)-1H-pyrazol-5-yl)-3-(4-((2-((3-ethynyl-5-(2-(2-(2-methoxyethoxy)ethoxy)ethoxy)phenyl)amino)pyrimidin-4-yl)oxy)naphthalen-1-yl)urea]
IC50 (PBMCs [1]): 4.5 nM
IC50 (GSK3α): > 10000 nM

COCCOCCOCCOc1cc(Cl)cc(Nc2nccc(Oc3ccc(NC(=O)Nc4cc(C(C)(C)C)nn4-c4ccc(C)cc4)c4ccccc34)n2)c1 [Example 64, 1-(3-(tert-Butyl)-1-(p-tolyl)-1H-pyrazol-5-yl)-3-(4-((2-((3-chloro-5-(2-(2-(2-methoxyethoxy)-ethoxy)ethoxy)phenyl)amino)pyrimidin-4-yl)oxy)naphthalen-1-yl)urea]
IC50 (PBMCs [1]): 9.5 nM
IC50 (GSK3α): > 10000 nM

COc1cc(Nc2nccc(Oc3ccc(NC(=O)Nc4cc(C(C)(C)C)nn4-c4ccc(C)cc4)c(Cl)c3Cl)n2)cc(OCCCN2CCOCC2)c1 [Example 65, 1-(3-(tert-Butyl)-1-(p-tolyl)-1H-pyrazol-5-yl)-3-(2,3-dichloro-4-((2-((3-methoxy-5-(3-morpholinopropoxyl)phenyl)amino)pyrimidin-4-yl)oxy)phenyl)urea]
IC50 (PBMCs [1]): 3.5 nM
IC50 (GSK3α): > 10000 nM
IC50 (PBMCs [2]; [4]): 2.8 nM
IC50 (PBMCs [2]; [3]): 37 nM

COCCOCCOCCOc1cc(Nc2nccc(Oc3ccc(NC(=O)Nc4cc(C(C)(C)C)nn4-c4ccc(C)cc4)c4ccccc34)n2)cc(N(C)C)c1 [Example 66, 1-(3-(tert-Butyl)-1-(p-tolyl)-1H-pyrazol-5-yl)-3-(4-((2-((3-(dimethylamino)-5-(2-(2-(2-methoxyethoxy)ethoxy)ethoxy)phenyl)amino)pyrimidin-4-yl)oxy)naphthalen-1-yl)urea]
IC50 (PBMCs [1]): 2.6 nM
IC50 (GSK3α): 3390 nM

COCCOCCOCCOc1cc(Nc2nccc(Oc3ccc(NC(=O)Nc4cc(C(C)(C)C)nn4-c4ccc(C)cc4)c4ccccc34)n2)cc(OC)c1Cl [Example 72, 1-(3-(tert-Butyl)-1-(p-tolyl)-1H-pyrazol-5-yl)-3-(4-((2-((4-chloro-3-methoxy-5-(2-(2-(2-methoxyethoxyl)ethoxy)ethoxy)phenyl)amino)pyrimidin-4-yl)oxy)naphthalen-1-yl)urea]
IC50 (p38 MAPKα): 377 nM
IC50 (Syk): 75 nM
IC50 (GSK3α): > 10000 nM
IC50 (PBMCs [2]; [4]): 3.3 nM
IC50 (PBMCs [2]; [3]): 35.1 nM
